Assay results from publication PMC3348258 (Nature, 2012).
“And” between values parts separate entries of the source, which are not always exact repeats. Equal entries are not always repeated.

Assays:
[1] = test system: BK α subunits coexpressed with construct D20A; assay: Effect of pore blockers on β3a-mediated tail currents; assay type: cell-based, mSlo1 (mouse) with human β3a N-terminus on human β2; details: 10 μM Ca^2+; TBA 2 or 10 mM; bbTBA 200 and 400 μM
open BK channels = details: read-out: blocking affinity / Kd(0) for block of open BK channels; cited from earlier work
Shaker K^+ channels = details: cited from earlier work

Which results are given for `CCCC[N+](CCCC)(CCCC)CCCC` [TBA, tetrabutylammonium]?
effect on β3a-mediated tail currents [1]: both peak tail current and tail current time constant were reduced; Kd (open BK channels): 900 µM and ~900 µM

With `CC[N+](CC)(CC)CC` [TEA, tetraethylammonium] as the molecule, how does the “effect on inactivation onset” value (Shaker K^+ channels) read?
Its value is “slow inactivation onset”.
